Measured values as given in ChEMBL document CHEMBL1201862, “PubChem BioAssay data set” (2004).
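Five concentrations, 48 hours, 96-well plates. GI50 = concentration required for 50% inhibition of growth.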 The source made the active and inactive calls. Rule as the data show it: active = GI50 up to about 1.1 µM and inactive = higher.

Tests used:
Experiment in all cases: NCI anticancer screen, dose series, 48 h
[1] = tested on: 786-0
[2] = tested on: A498
[3] = tested on: A549
[4] = tested on: ACHN
[5] = tested on: BT-549
[6] = tested on: CAKI-1
[7] = tested on: CCRF-CEM
[8] = tested on: COLO 205
[9] = tested on: DU-145
[10] = tested on: EKVX
[11] = tested on: HCC 2998
[12] = tested on: HCT-116
[13] = tested on: HCT-15
[14] = tested on: HOP-62
[15] = tested on: HOP-92
[16] = tested on: HT-29
[17] = tested on: IGROV-1
[18] = tested on: K562
[19] = tested on: KM12
[20] = tested on: LOX IMVI
[21] = tested on: M14
[22] = tested on: MCF7
[23] = tested on: MDA-MB-231
[24] = tested on: MDA-MB-435
[25] = tested on: MDA-N
[26] = tested on: MOLT-4
[27] = tested on: Malme-3M
[28] = tested on: NCI-H226
[29] = tested on: NCI-H23
[30] = tested on: NCI-H460
[31] = tested on: NCI/ADR-RES
[32] = tested on: OVCAR-3
[33] = tested on: OVCAR-4
[34] = tested on: OVCAR-5
[35] = tested on: OVCAR-8
[36] = tested on: PC-3
[37] = tested on: SF-268
[38] = tested on: SF-295
[39] = tested on: SF-539
[40] = tested on: SK-MEL-28
[41] = tested on: SK-MEL-2
[42] = tested on: SK-MEL-5
[43] = tested on: SK-OV-3
[44] = tested on: SN12C
[45] = tested on: SNB-19
[46] = tested on: SNB-75
[47] = tested on: SW-620
[48] = tested on: TK-10
[49] = tested on: U-251
[50] = tested on: UACC-257
[51] = tested on: UO-31
[52] = tested on: RPMI-8226
[53] = tested on: SR
[54] = tested on: T47D
[55] = tested on: UACC-62

Measured: GI50

CCOC(=O)C12OC(OCC)(CC1(OCC)OCC)C1(CC1)C2=O (stereo not given)
inactive: [1] > 100 µM | [2] > 100 µM | [3] > 100 µM | [4] > 100 µM | [5] > 100 µM | [6] > 100 µM | [7] > 100 µM | [8] > 100 µM | [9] > 100 µM | [10] > 100 µM | [11] > 100 µM | [12] > 100 µM | [14] > 100 µM | [15] > 100 µM | [16] > 100 µM | [17] > 100 µM | [18] > 100 µM | [19] > 100 µM | [20] > 100 µM | [21] > 100 µM | [22] > 100 µM | [23] > 100 µM | [24] > 100 µM | [25] > 100 µM | [26] > 100 µM | [27] > 100 µM | [28] > 100 µM | [29] > 100 µM | [30] > 100 µM | [31] > 100 µM | [32] > 100 µM | [33] > 100 µM | [34] > 100 µM | [35] > 100 µM | [36] > 100 µM | [37] > 100 µM | [38] > 100 µM | [39] > 100 µM | [40] > 100 µM | [41] > 100 µM | [42] > 100 µM | [43] > 100 µM | [44] > 100 µM | [45] > 100 µM | [46] > 100 µM | [47] > 100 µM | [48] > 100 µM | [49] > 100 µM | [50] > 100 µM | [51] > 100 µM
> 100 µM: [13]

CC[C@@]1(O)C(=O)OCc2c1cc1n(c2=O)Cc2c-1nc1ccccc1c2/C=N/c1ccccc1N[C@@H]1c2cc3c(cc2[C@@H](c2cc(OC)c(O)c(OC)c2)[C@H]2C(=O)OC[C@@H]21)OCO3
active: [1] 0.0142 µM | [3] 0.0351 µM | [4] 0.0106 µM | [5] 0.269 µM | [6] 0.0204 µM | [7] < 0.005 µM | [9] 0.00767 µM | [11] 0.148 µM | [12] 0.0527 µM | [14] 0.0103 µM | [15] 0.209 µM | [20] 0.0194 µM | [21] 0.0239 µM | [22] 0.00684 µM | [23] 1.05 µM | [27] 0.329 µM | [28] 0.0362 µM | [33] 0.427 µM | [36] 0.164 µM | [52] 0.175 µM | [37] 0.0161 µM | [42] 0.0532 µM | [46] 0.028 µM | [53] < 0.005 µM | [47] 0.157 µM | [54] 0.014 µM | [49] 0.188 µM | [50] 0.278 µM | [55] 0.014 µM
